Assays:
[1] = system: Pseudomonas aeruginosa PA14 SCV; assay: MIC determination, planktonic cells shed from biofilms (MBEC P&G device); assay type: cell-based; details: SCV; planktonic cells; OD650 after 72 h at 35° C.; mean ± SD of four trials
Procedure: (§1) Antimicrobial susceptibility testing. Antibiotic, metal and biocide susceptibility tests were performed. Antimicrobials were arranged into arrays in microtitre plates that typically consisted of serial two-fold dilutions along the rows of wells (the challenge plates). The first and last wells of every row were used as sterility and growth controls, respectively. […] Biofilms were rinsed with PBS (to remove loosely adherent planktonic cells) and inserted into the challenge plates. After exposure, biofilms were rinsed once in PBS and inserted into microtitre plates containing […] of recovery medium in each well (LB broth, 5 mM GSH, 5 mM L-cys, 1% v/v tween-20). These biofilms were disrupted into the recovery medium using a sonicator, and the recovered cells were serially diluted and plated for viable cell counting. Spot plates from these experiments were incubated for a minimum of 36 h at 35° C. before enumeration. Minimum inhibitory concentration (MIC) values were determined by reading the optical density at 650 nm (OD650) of challenge plates after 72 h at 35° C. using a THERMOmax microplate reader with SOFTMAX PRO data analysis software (Molecular Devices, Sunnyvale, Calif.).
(§2) For susceptibility testing, growth-curve data were used to calibrate incubation times to produce biofilms of similar cell density. […] In this model system, planktonic cells shed from the surface of biofilms served as the inoculum for MIC determinations.

[2] = system: Pseudomonas aeruginosa PA14 gacS^−; assay: as above; assay type: cell-based; details: gacS^−; planktonic cells; OD650 after 72 h at 35° C.; mean ± SD of four trials
Procedure: as §1, §2

[3] = system: Pseudomonas aeruginosa PA14 SCV biofilms; assay: Biofilm susceptibility testing (viable cell counts, log-killing, MBEC99.9); assay type: cell-based; details: for MBEC99.9: 2 h exposure, 3 log10 reduction in viable cells; for tolerance of SCV strain biofilms relative to the wild-type strain: ratio of MBEC99.9 values, SCV vs wild type
From the text: (§3) Biofilm formation. Biofilms were aerobically cultivated using the MBEC high-throughput (HTP) or Physiology and Genetics (P&G) device (Innovotech, Edmonton, Canada) as described in the manufacturer's instructions and by Ceri et al. (1999). To summarize, the parts of this batch culture apparatus were used in two ways. The top half of the plastic MBEC™-HTP device is a lid with 96 polystyrene pegs that also fits over a standard 96-well microtitre plate. For Biofilm growth, the bottom half was either (1) a corrugated trough that guided 22 mL of inoculum across the pegs when the device was placed on a rocker at 3.5 rocks per min (HTP format), or (2) a microtitre plate with […] of inoculum in each well that was placed on a gyrorotary shaker at 150 r.p.m. (P&G format). For either assay format, the inoculum was prepared to c. 10^7CFU/mL1 of the desired strain and the inoculated device was incubated at 35° C. and 95% relative humidity for the required time. Unless otherwise noted, all experiments utilized the MBEC P&G assay. Pegs from the devices were collected at specific time points for scanning electron microscopy and scanning confocal laser microscopy. Biofilm cell densities were evaluated by breaking pegs from the lid of the MBEC device with sterile pliers, rinsing the peg in PBS, and subsequent viable-cell counting as described above. PBS containing the […] surfactant Tween-20 (1% v/v) was used to assist in recovery of bacteria from the peg surfaces. Pegs were sonicated for 30 min in an Aquasonic model 250HT ultrasonic cleaner (VWR International, Mississauga, Canada). Samples of broth culture were collected at the same time points and viable cell counts were determined in a similar manner.
as §1, §2

[4] = system: Pseudomonas aeruginosa PA14 gacS^− biofilms; assay: as above; assay type: cell-based; details: for Log-survival / No. of survivors / SCV frequency: LB broth; for Log-survival / No. of survivors / SCV frequency / MBEC99.9: 2 h exposure; for MBEC99.9: gacS^− biofilms, 3 log10 reduction in viable cells
From the text: as §3, §1, §2

[5] = system: Pseudomonas aeruginosa PA14 wild-type biofilms; assay type: cell-based; details: for MBEC99.9: wild type biofilms, 2 h exposure, 3 log10 reduction in viable cells
From the text: as §3, §1, §2

[6] = system: Pseudomonas aeruginosa PA14 wild-type; assay: microbe, parasite or virus in culture; assay type: cell-based; details: for differences in planktonic cell susceptibility between the different strains: wild type vs gacS^− vs SCV, log2 difference or less; for MIC72 h: wild type, planktonic cells, OD650 after 72 h at 35° C., mean ± SD of four trials
Procedure: as §1, §2

[7] = system: Pseudomonas aeruginosa PA14 gacS^− biofilms; assay: Frequency of SCV cells arising from 24-h biofilms exposed for 18 h; assay type: cell-based; details: for Log-survival / No. of survivors / SCV frequency: LB broth, overnight (18 h)
[8] = system: Pseudomonas aeruginosa PA14 gacS^− biofilms; assay: as above; assay type: cell-based; details: for frequency of SCVs (phenotypic variants) among surviving cells, in words: 18 h exposure of 24-h biofilms; for Log-survival / SCV frequency: LB broth, antibiotic 1.25 μg mL^−1, overnight (18 h)
Procedure: In an alternative set of experiments, the frequency of SCV cells arising from 24-h biofilms of P. aeruginosa PA14 gacS was evaluated. Antibiotics were diluted from stock solutions into LB broth to obtain final concentrations of […]. These were arranged in triplicate in a micro-titre plate. Biofilms were incubated in these low concentrations of antibacterials for 18 h at 35° C. and 95% relative humidity. Goat and human serum were also assayed in this array, and were kind gifts from The Life and Environmental Sciences Animal Care Facility at the University of Calgary, Department of Biological Sciences. After exposure, biofilms were treated in a manner identical to that described above.
Frequency of phenotypic variation. During the course of susceptibility assays, the proportion of SCV cells recovered from biofilms after exposure to Ag^+ or H2O2 was increased relative to the corresponding growth controls. It was queried whether this may be true for other antimicrobial agents or growth conditions. An array of clinically used antibiotics, saline, and goat and human sera were examined for an ability to select for these SCVs from 24-h biofilms of P. aeruginosa PA14 gacS. Biofilms were exposed to these agents for 18 h and each assay was performed in triplicate. Viable cell counts were determined for each exposure condition, and log-survival was determined. The proportion of SCV cells in bacterial populations recovered from these exposure conditions was calculated as the mean of the proportions from each individual trial.

[9] = system: P. aeruginosa PA14 gacA biofilms; assay: Antibiotic susceptibility profiling of biofilms with the MBEC device; assay type: cell-based, Pseudomonas aeruginosa; details: in words
Procedure: Growth Conditions, Sample Analysis and Bio-Assays of Pseudomonas aeruginosa. Biofilm and planktonic growth studies were performed using the Calgary Biofilm Device (CBD) (MBEC™ Biofilm Technologies Limited). Pseudomonas aeruginosa PA14 wild type, gacA and toxA strains were grown for 24 hours in Tryptic Soy Broth (BDH). Biofilm and planktonic populations were sampled at points.
Sampling of biofilm populations was achieved by dislodging a peg from the 96 peg lid, whereas planktonic populations were sampled by removing an aliquot from the growth vessel. Biofilms were disrupted to release individual component cells by sonication. Cell counts of both populations were determined by serial dilution in 0.9% saline and spot plating on Tryptic Soy Agar plates (BDH). Antibiotic susceptibility profiling of P. aeruginosa PA14 wild type, toxA and gacA strains was performed using the MBEC™ device as per manufacturer's instructions (MBEC™ Biofilm Technologies Limited).

## [Ag+] [Ag^+]
[1]
  MIC72 h: 40 ± 0 µM
[2]
  MIC72 h: 40 ± 10 µM
[3]; SCV biofilms, 2 h exposure (FIG. 15)
  concentration to which biofilms were resistant: 2.4 mM
[3]; SCV biofilms
  MBEC99.9: 4.8 ± 0 mM
[3]
  tolerance of SCV strain biofilms relative to the wild-type strain: ~60 times
[4]; 4 μg mL^−1
  Log-survival: −2.6 ± 0.1 log10 CFU peg^−1
  No. of survivors: 2.4 ± 0.1 log10 CFU peg^−1
  SCV frequency: 7%
[4]; PA14 gacS biofilms, 2 h exposure (FIG. 15)
  concentration at which the vast majority of cell viability was lost: 0.02 mM
[4]
  MBEC99.9: 0.06 ± 0.02 mM
[4]; susceptibility assays, in words
  proportion of SCV cells recovered from biofilms after exposure, relative to growth controls: increased
[5]; PA14 wt biofilms, 2 h exposure (FIG. 15)
  concentration at which the vast majority of cell viability was lost: 0.04 mM
[5]
  MBEC99.9: 0.08 ± 0.05 mM
[6]
  differences in planktonic cell susceptibility between the different strains: no significant differences
  MIC72 h: 40 ± 20 µM

## NCC[C@H](O)C(=O)N[C@@H]1C[C@H](N)[C@@H](O[C@H]2O[C@H](CN)[C@@H](O)[C@H](O)[C@H]2O)[C@H](O)[C@H]1O[C@H]1O[C@H](CO)[C@@H](O)[C@H](N)[C@H]1O [Amikacin]
[7]; antibiotic 5 μg mL^−1
  Log-survival: −2.8 ± 0.6 log10 CFU peg^−1
  No. of survivors: 3.6 ± 0.6 log10 CFU peg^−1
  SCV frequency: 23%
[8]
  frequency of SCVs (phenotypic variants) among surviving cells, in words: approximately one in five

## C[C@H]1[C@H](NC(=O)/C(=N\OC(C)(C)C(=O)O)c2csc(N)n2)C(=O)N1S(=O)(=O)O [Azetronam]
[7]; antibiotic 1.25 μg mL^−1
  No. of survivors: 4.5 ± 0.5 log10 CFU peg^−1
[8]
  Log-survival: −2.6 ± 0.5 log10 CFU peg^−1
  SCV frequency: 24%

## CO/N=C(\C(=O)N[C@@H]1C(=O)N2C(C(=O)O)=C(CSc3nc(=O)c(O)nn3C)CS[C@H]12)c1csc(N)n1 [Ceftrioxone]
[7]; antibiotic 1.25 μg mL^−1
  No. of survivors: 6.8 ± 0.5 log10 CFU peg^−1
[8]
  frequency of SCVs (phenotypic variants) among surviving cells, in words: approximately one in three
  Log-survival: +0.4 ± 0.5 log10 CFU peg^−1
  SCV frequency: 29%

## [Cu+2] [Cu^2+]
[1]
  MIC72 h: 4000 ± 0 µM
[2]
  MIC72 h: 8000 ± 0 µM
[3]; SCV biofilms
  MBEC99.9: 64 ± 0 mM
[3]
  tolerance of SCV strain biofilms relative to the wild-type strain: eight
[4]; 16 μg mL^−1
  Log-survival: −0.9 ± 0.1 log10 CFU peg^−1
  No. of survivors: 4.2 ± 0.1 log10 CFU peg^−1
  SCV frequency: 0%
[4]
  MBEC99.9: 7 ± 2 mM
[5]
  MBEC99.9: 8 ± 0 mM
[6]
  differences in planktonic cell susceptibility between the different strains: no significant differences
  MIC72 h: 8000 ± 0 µM

## CC[C@H]1OC(=O)[C@H](C)[C@@H](O[C@H]2C[C@@](C)(OC)[C@@H](O)[C@H](C)O2)[C@H](C)[C@@H](O[C@@H]2O[C@H](C)C[C@H](N(C)C)[C@H]2O)[C@](C)(O)C[C@@H](C)C(=O)[C@H](C)[C@@H](O)[C@]1(C)O [Erythromicin]
[7]; antibiotic 5 μg mL^−1
  Log-survival: −0.1 ± 0.3 log10 CFU peg^−1
  No. of survivors: 6.4 ± 0.3 log10 CFU peg^−1
  SCV frequency: 0%
[8]; in words
  selection for SCVs / increase of the frequency of SCV cells compared with growth controls: in no instances
[9]
  biofilm resistance relative to PA14 wild type or toxA control strain: moderately decreased resistance

## C[C@@H](O)[C@H]1C(=O)N2C(C(=O)O)=C(SCCN=CN)C[C@H]12 [Imipenem]
[7]; antibiotic 1.25 μg mL^−1
  No. of survivors: 2.7 ± 1.0 log10 CFU peg^−1
[8]
  Log-survival: −3.8 ± 1.0 log10 CFU peg^−1
  SCV frequency: 0%

## Cc1onc(-c2ccccc2)c1C(=O)N[C@@H]1C(=O)N2[C@@H]1SC(C)(C)[C@@H]2C(=O)O [Oxacilin]
[7]; antibiotic 1.25 μg mL^−1
  No. of survivors: 5.6 ± 0.6 log10 CFU peg^−1
[8]
  frequency of SCVs (phenotypic variants) among surviving cells, in words: approximately one in three
  Log-survival: −0.9 ± 0.6 log10 CFU peg^−1
  SCV frequency: 32%

## CO[C@H]1/C=C/O[C@@]2(C)Oc3c(C)c(O)c4c(O)c(c(/C=N/N5CCN(C)CC5)c(O)c4c3C2=O)NC(=O)/C(C)=C\C=C\[C@H](C)[C@H](O)[C@@H](C)[C@@H](O)[C@@H](C)[C@H](OC(C)=O)[C@@H]1C [Rifampicin]
[7]; 5 μg/mL
  cells killed from the biofilm population: 0.7 log10 cells
[7]; antibiotic 5 μg mL^−1
  Log-survival: −0.7 ± 0.3 log10 CFU peg^−1
  No. of survivors: 5.7 ± 0.3 log10 CFU peg^−1
  SCV frequency: 58%

## NC[C@H]1O[C@H](O[C@H]2[C@H](O)[C@@H](O[C@H]3O[C@H](CO)[C@@H](O)[C@H](N)[C@H]3O)[C@H](N)C[C@@H]2N)[C@H](N)C[C@@H]1O [Tobramicin]
[7]; antibiotic 1.25 μg mL^−1
  No. of survivors: 5.4 ± 0.5 log10 CFU peg^−1
[8]
  frequency of SCVs (phenotypic variants) among surviving cells, in words: approximately one in five
  Log-survival: −1.0 ± 0.5 log10 CFU peg^−1
  SCV frequency: 14%

## CC[C@H]1OC(=O)[C@H](C)[C@@H](O[C@H]2C[C@@](C)(OC)[C@@H](O)[C@H](C)O2)[C@H](C)[C@@H](O[C@@H]2O[C@H](C)C[C@H](N(C)C)[C@H]2O)[C@](C)(O)C[C@@H](C)CN(C)[C@H](C)[C@@H](O)[C@]1(C)O [azythromycin]
[9]
  biofilm resistance relative to PA14 wild type or toxA control strain: moderately decreased resistance

## O=C(N[C@H](CO)[C@H](O)c1ccc([N+](=O)[O-])cc1)C(Cl)Cl [chloramphenicol]
[9]
  biofilm resistance relative to PA14 wild type or toxA control strain: moderately decreased resistance

## CCN1CCN(C(=O)N[C@@H](C(=O)N[C@@H]2C(=O)N3[C@@H]2SC(C)(C)[C@@H]3C(=O)O)c2ccccc2)C(=O)C1=O [piperacillin]
[8]
  frequency of SCVs (phenotypic variants) among surviving cells, in words: approximately one in three
[9]
  biofilm resistance relative to PA14 wild type or toxA control strain: moderately decreased resistance

## polymixin B
[9]
  biofilm resistance relative to PA14 wild type or toxA control strain: moderately decreased resistance

Reference: US20080075730A1, “Methods and compositions for treating biofilms” (priority 2003, published 2008)
